From patent US9707305B2, “Formulas for diagnosing and treating hormone-dependent cancers and cancers of the organs responsible for steroid hormone synthesis” (Commissariat à l'énergie atomique et aux énergies …, priority 2011, dated 2017)

Legend:
[1] = Biodistribution of the nano-emulsion of Example 1.1 in male mice (Tables 15 to 21); format: in vivo; settings: FVB male mouse
Procedure: (§1) In the following examples, the radioactivity was counted with the TRiCarb Counter (Ref: Packard, Liquid Scintillation Analyzers; Models 2200CA).
Fluobeam 700 (Fluoptics) is the apparatus with which the whole of the organs from the biodistribution were analyzed in fluorescence as well as the one with which the biodistribution kinetics of the nano-emulsions were established in vivo. This imaging system allows viewing of the fluorescence in spectral bands from 700 to 850 nm for a 650 nm excitation. The apparatus consists of an electric case containing the laser of class 3B, its power supply and an optical head containing the CCD camera. […]

[2] = Biodistribution of the mixture of three free tracers (not formulated as nano-emulsion), comparative; format: in vivo; settings: FVB female mouse
Procedure: as §1
Fluobeam 700 (Fluoptics) is the apparatus with which the whole of the organs from the biodistribution were analyzed in fluorescence as well as the one with which the biodistribution kinetics of the nano-emulsions were established in vivo. This imaging system allows viewing of the fluorescence in spectral bands from 700 to 850 nm for a 650 nm excitation. The apparatus consists of an electric case containing the laser of class 3B, its power supply and an optical head containing the CCD camera.
As a comparison, a mixture of three tracers ([3H]CHE, [14C]CO and DiD) (not formulated as a nano-emulsion) was injected in order to observe the distribution of the tracers in the absence of droplets being used as a distribution carrier.

[3] = 2 h after injection of free tracers (not nano-emulsion)
[4] = 6 h after injection of free tracers (not nano-emulsion)
[5] = 16 h after injection of free tracers (not nano-emulsion)
[6] = 24 h after injection of free tracers (not nano-emulsion)

In the case of CCCCCCCCCCCCCCCCO[C@H]1CC[C@@]2(C)C(=CC[C@H]3[C@@H]4CC[C@H]([C@H](C)CCCC(C)C)[C@@]4(C)CC[C@@H]32)C1 [[3H]CHE, cholesteryl hexadecylether], the “tracer in Salivary gland” value ([1]; Salivary gland, 72 h) is reported as 2.36 percentage of the dose injected per gram of tissue, the “tracer in Seminal gland” value ([1]; 4 h) is reported as 0.50 percentage of the dose injected per gram of tissue and the “tracer in Seminal gland” value ([1]; 6 h) is reported as 0.54 percentage of the dose injected per gram of tissue. For the same compound, the “tracer in Seminal gland” value ([1]; 16 h) was 0.64 percentage of the dose injected per gram of tissue, the “tracer in Seminal gland” value ([1]; 24 h) was 0.35 percentage of the dose injected per gram of tissue and the “tracer in Seminal gland” value ([1]; 48 h) was 0.35 percentage of the dose injected per gram of tissue. For the same compound, the “tracer in Seminal gland” value ([1]; 72 h) was 0.58 percentage of the dose injected per gram of tissue, the “tracer in Seminal glands” value ([1]; Seminal glands, 2 h) was 0.79 percentage of the dose injected per gram of tissue and the “tracer in Spleen” value ([1]; 2 h) was 7.15 percentage of the dose injected per gram of tissue. For the same compound, the “tracer in Spleen” value ([1]; 4 h) was 5.31 percentage of the dose injected per gram of tissue, the “tracer in Spleen” value ([1]; 6 h) was 6.453 percentage of the dose injected per gram of tissue and the “tracer in Spleen” value ([1]; 16 h) was 9.19 percentage of the dose injected per gram of tissue. For the same compound, the “tracer in Spleen” value ([1]; 24 h) was 6.65 percentage of the dose injected per gram of tissue, the “tracer in Spleen” value ([1]; 48 h) was 11.18 percentage of the dose injected per gram of tissue and the “tracer in Spleen” value ([1]; 72 h) was 6.40 percentage of the dose injected per gram of tissue. The “tracer in Testicle” value ([1]; 2 h) was 1.36 percentage of the dose injected per gram of tissue, the “tracer in Testicle” value ([1]; 4 h) was 1.35 percentage of the dose injected per gram of tissue and the “tracer in Testicle” value ([1]; 6 h) was 2.000 percentage of the dose injected per gram of tissue. The “tracer in Testicle” value ([1]; 16 h) was 2.95 percentage of the dose injected per gram of tissue, the “tracer in Testicle” value ([1]; 48 h) was 2.97 percentage of the dose injected per gram of tissue and the “tracer in Testicle” value ([1]; 72 h) was 4.34 percentage of the dose injected per gram of tissue. The “biodistribution, Adrenal glands (MEAN)” value [2, 3] was 0.17 % of injected dose per gram of, the “biodistribution, Brain (MEAN)” value [2, 3] was 0.00 % of injected dose per gram of and the “biodistribution, Fat (MEAN)” value [2, 3] was 0.02 % of injected dose per gram of. For the same compound, the “biodistribution, Heart (MEAN)” value [2, 3] was 0.08 % of injected dose per gram of, the “biodistribution, Intestine (MEAN)” value [2, 3] was 0.03 % of injected dose per gram of and the “biodistribution, Kidney (MEAN)” value [2, 3] was 0.09 % of injected dose per gram of. The “biodistribution, Liver (MEAN)” value [2, 3] was 1.76 % of injected dose per gram of, the “biodistribution, Lung (MEAN)” value [2, 3] was 29.10 % of injected dose per gram of and the “biodistribution, Muscle (MEAN)” value [2, 3] was 0.04 % of injected dose per gram of. For the same compound, the “biodistribution, Ovary (MEAN)” value [2, 3] was 0.04 % of injected dose per gram of, the “biodistribution, Pancreas (MEAN)” value [2, 3] was 0.05 % of injected dose per gram of and the “biodistribution, Salivary gland (MEAN)” value [2, 3] was 0.01 % of injected dose per gram of. The “biodistribution, Spleen (MEAN)” value [2, 3] was 1.55 % of injected dose per gram of, the “biodistribution, Uterus (MEAN)” value [2, 3] was 0.02 % of injected dose per gram of and the “biodistribution, Adrenal glands (MEAN)” value [2, 4] was 0.36 % of injected dose per gram of. For the same compound, the “biodistribution, Brain (MEAN)” value [2, 4] was 0.02 % of injected dose per gram of, the “biodistribution, Fat (MEAN)” value [2, 4] was 0.05 % of injected dose per gram of and the “biodistribution, Heart (MEAN)” value [2, 4] was 0.30 % of injected dose per gram of. For the same compound, the “biodistribution, Intestine (MEAN)” value [2, 4] was 0.15 % of injected dose per gram of, the “biodistribution, Kidney (MEAN)” value [2, 4] was 0.41 % of injected dose per gram of and the “biodistribution, Liver (MEAN)” value [2, 4] was 3.23 % of injected dose per gram of. The “biodistribution, Lung (MEAN)” value [2, 4] was 83.99 % of injected dose per gram of, the “biodistribution, Muscle (MEAN)” value [2, 4] was 0.03 % of injected dose per gram of and the “biodistribution, Ovary (MEAN)” value [2, 4] was 0.07 % of injected dose per gram of. For the same compound, the “biodistribution, Pancreas (MEAN)” value [2, 4] was 0.09 % of injected dose per gram of, the “biodistribution, Salivary gland (MEAN)” value [2, 4] was 0.09 % of injected dose per gram of and the “biodistribution, Uterus (MEAN)” value [2, 4] was 0.04 % of injected dose per gram of. The “biodistribution, Adrenal gland (MEAN)” value [2, 5] was 0.47 % of injected dose per gram of, the “biodistribution, Brain (MEAN)” value [2, 5] was 0.02 % of injected dose per gram of and the “biodistribution, Fat (MEAN)” value [2, 5] was 0.02 % of injected dose per gram of. For the same compound, the “biodistribution, Heart (MEAN)” value [2, 5] was 0.35 % of injected dose per gram of, the “biodistribution, Intestine (MEAN)” value [2, 5] was 0.13 % of injected dose per gram of and the “biodistribution, Kidney (MEAN)” value [2, 5] was 0.53 % of injected dose per gram of. For the same compound, the “biodistribution, Liver (MEAN)” value [2, 5] was 6.95 % of injected dose per gram of, the “biodistribution, Lung (MEAN)” value [2, 5] was 124.35 % of injected dose per gram of and the “biodistribution, Muscle (MEAN)” value [2, 5] was 0.05 % of injected dose per gram of. The “biodistribution, Ovary (MEAN)” value [2, 5] was 0.19 % of injected dose per gram of, the “biodistribution, Pancreas (MEAN)” value [2, 5] was 0.04 % of injected dose per gram of and the “biodistribution, Salivary gland (MEAN)” value [2, 5] was 0.05 % of injected dose per gram of. The “biodistribution, Spleen (MEAN)” value [2, 5] was 4.17 % of injected dose per gram of, the “biodistribution, Uterus (MEAN)” value [2, 5] was 0.03 % of injected dose per gram of and the “biodistribution, Adrenal gland (MEAN)” value [2, 6] was 0.31 % of injected dose per gram of. The “biodistribution, Brain (MEAN)” value [2, 6] was 0.03 % of injected dose per gram of, the “biodistribution, Fat (MEAN)” value [2, 6] was 1.42 % of injected dose per gram of and the “biodistribution, Heart (MEAN)” value [2, 6] was 0.12 % of injected dose per gram of. The “biodistribution, Intestine (MEAN)” value [2, 6] was 0.07 % of injected dose per gram of, the “biodistribution, Kidney (MEAN)” value [2, 6] was 1.12 % of injected dose per gram of and the “biodistribution, Liver (MEAN)” value [2, 6] was 1.12 % of injected dose per gram of. For the same compound, the “biodistribution, Lung (MEAN)” value [2, 6] was 6.37 % of injected dose per gram of, the “biodistribution, Muscle (MEAN)” value [2, 6] was 0.11 % of injected dose per gram of and the “biodistribution, Ovary (MEAN)” value [2, 6] was 0.08 % of injected dose per gram of. The “biodistribution, Pancreas (MEAN)” value [2, 6] was 0.03 % of injected dose per gram of, the “biodistribution, Salivary gland (MEAN)” value [2, 6] was 0.14 % of injected dose per gram of and the “biodistribution, Spleen (MEAN)” value [2, 6] was 10.63 % of injected dose per gram of. The “biodistribution, Uterus (MEAN)” value [2, 6] was 0.34 % of injected dose per gram of and the “accumulation of the free radioactive tracers in the lungs” value ([2]; Tables 2 to 5 (2 to 24 h), free tracers) was “strong accumulation”.
